The values that follow come from US20240368174A1, “Antiviral Heterocyclic Compounds” (Enanta Pharmaceuticals, Inc., priority 2023, published 2024).

In the test the test system is HMPV clinical isolate A2 strain TN 94-49. The experiment in a line: HMPV antiviral assay, Method 2 (LLC-MK2 cells with CP-100-356, ATP-Lite). It counts as cell-based. Particulars: human metapneumovirus. Put shortly:
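EC50 comes from a four-parameter fit of percent cell viability (ATP-Lite, normalized to virus-only and cell-only wells) after 7 days at 37 °C. Infection used HMPV A2 TN 94-49 at MOI 0.16 in LLC-MK2 cells, with 2 μM P-gp inhibitor CP-100-356 and 2 μg/mL TPCK-trypsin final; dose range 200 nM top, 2.5-fold, 10 points, duplicate.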

[1] abbreviates: hMPV A2 TN/94-49, LLC-MK2 cells with CP-100-356, Method 2.
Setting [2] is: 168 h, hMPV A2 TN/94-49, LLC-MK2 cells with 4 μM CP-100-356, 7 days, ATP-Lite.

pEC50: −log10 of the molar value.

Usually pEC50 stands for the negative decadic logarithm of the EC50, by convention in mol/L. High values mean a small EC50, low ones a large EC50. `C[C@]1(C(N)=O)COc2c1cc([C@@](O)(CNC(=O)c1cc(Cl)c3nn(C4CC4)cc3c1)c1ccccc1)nc2-c1cc(Cl)c(F)cc1F` [Example 99]: the pEC50 under setting [1] was greater than 6.70.

`C[C@]1(C(N)=O)COc2c1cc([C@@](O)(CNC(=O)c1ccc3nn(C4CC4)cc3c1)c1ccccc1)nc2-c1cc(Cl)c(F)cc1F` [Example 101] showed a pEC50 under setting [1] greater than 6.70.

Under setting [1], `COc1nccc(-c2nc([C@@](O)(CNC(=O)c3cc(OC)c4nc(C5CC5)cn4c3)C3CC3)cc3c2OC[C@]3(C)C(N)=O)c1Cl` [Example 583] had a pEC50 greater than 6.70. In turn, `COc1cc(C(=O)NC[C@](O)(c2cccc(F)c2)c2cc3c(c(-c4cc(Cl)ncc4F)n2)OC[C@]3(C)C(N)=O)cc2cn(C3CC3)nc12` [Example 411] showed a pEC50 under setting [1] of less than 6.70. The same measure, in the same setting: in the case of `COc1cc(C(=O)NC[C@@](O)(c2ccccc2)c2cc3c(c(-c4ccnc(C(F)F)c4Cl)n2)OC[C@]3(C)C(N)=O)cc2cn(C3(F)CC3)nc12` [Example 563] it was greater than 6.70; in that of `C[C@]1(C(N)=O)COc2c1cc([C@@](O)(CNC(=O)c1cc(OC3CC3)c3ncc(Cl)cc3c1)c1ccccc1)nc2-c1cc(C(F)(F)F)c(F)cc1F` [Example 315], greater than 6.70. The same measure, in the same setting: in the case of `COc1cc(C(=O)NC[C@](O)(c2cc3c(c(-c4ccnc(C)c4Cl)n2)OC[C@]3(C)C(N)=O)C2(F)CC2)cc2oc(C3(F)CC3)nc12` [Example 532] it was less than 6.70; in that of `COc1cc(C(=O)NC[C@@](O)(c2cccc(C(C)=O)c2)c2cc3c(c(-c4cccc(Cl)c4Cl)n2)OC[C@]3(C)C(N)=O)cc2cn(C3CC3)nc12` [Example 493], greater than 6.70.

Compound `COc1cc(C(=O)NC[C@](O)(c2cc3c(c(-c4ccnc(C)c4Cl)n2)OC[C@]3(C)C(N)=O)C2(F)CC2)cc2sc(C)nc12` [Example 530] had a pEC50 under setting [1] of less than 6.70. Regarding `COc1nccc(-c2nc([C@@](O)(CNC(=O)c3cc(Cl)c4nn(C5CC5)cc4c3)C(F)(F)F)cc3c2OC[C@]3(C)C(N)=O)c1Cl` [Example 544], the pEC50 under setting [1] is greater than 6.70. Consider `COc1nccc(-c2nc([C@](O)(CNC(=O)c3cc(OC)c4nn(C5CC5)cc4c3)c3cccc(F)c3)cc3c2OC[C@]3(C)C(N)=O)c1Cl` [Example 876], for which the pEC50 under setting [2] is less than 6.70.

With `COc1cc(C(=O)NC[C@@](O)(c2cccc(F)c2)c2cc3c(c(-c4cccc(Cl)c4Cl)n2)OC[C@]3(C)C(N)=O)cn2cc(C3CC3)nc12` [Example 337], the pEC50 under setting [1] was greater than 6.70. On the same count and under the same terms, in the case of `COc1cc(C(=O)NC[C@@](O)(c2ccccc2)c2cc3c(c(-c4ccc5c(c4)OC(F)(F)O5)n2)OC[C@]3(C)C(N)=O)cc2cc(Cl)cnc12` [Example 202] it was greater than 6.70; in that of `C[C@]1(C(N)=O)COc2c1cc([C@@](O)(CNC(=O)c1cc(OC3CC3)c3nn(C4(F)CC4)cc3c1)C(F)(F)F)nc2-c1ccnc(C(F)(F)F)c1Cl` [Example 595], greater than 6.70; in that of `COc1cc(-c2nc([C@@](O)(CNC(=O)c3cc(OC)c4nn(C5CC5)cc4c3)C3CC3)cc3c2OC[C@]3(C)C(N)=O)c(F)cn1` [Example 388], greater than 6.70. Still for that read-out and setting: in the case of `COc1cc(C(=O)NC[C@@](O)(c2ccc(F)cc2)c2cc3c(c(-c4ccnc(C(F)(F)F)c4F)n2)OC[C@]3(C)C(N)=O)cc2cn(C3(F)CC3)nc12` [Example 573] it was greater than 6.70; in that of `COc1cc(C(=O)NC[C@@](O)(c2ccc(F)cc2)c2cc3c(c(-c4ccnc(C(F)F)c4Cl)n2)OC[C@]3(C)C(N)=O)cc2cn(C3(F)CC3)nc12` [Example 570], greater than 6.70; in that of `COc1cc(C(=O)NC[C@@](O)(c2cccc(C(C)O)c2)c2cc3c(c(-c4cccc(Cl)c4Cl)n2)OC[C@]3(C)C(N)=O)cc2cn(C3CC3)nc12` (stereo partly shown) [Example 495], less than 6.70.

Take `COc1cc(C(=O)NC[C@](O)(c2cc3c(c(-c4ccnc(C(F)(F)F)c4Cl)n2)OC[C@]3(C)C(N)=O)C(F)(F)F)cc2oc(C(F)F)nc12` [Example 597]: the pEC50 under setting [1] was greater than 6.70. The compound `COc1cc(C(=O)NC[C@](O)(c2cc3c(c(-c4ccnc(C)c4Cl)n2)OC[C@]3(C)C(N)=O)C2(F)CC2)cc2cn(C3(F)CC3)nc12` [Example 525] had a pEC50 under setting [1] greater than 6.70. In the case of `COc1cc(C(=O)NC[C@](O)(c2cc3c(c(-n4ncc5c4CCCC5)n2)OC[C@]3(C)C(N)=O)C2CC2)cc2cn(C3CC3)nc12` [Example 642], the pEC50 under setting [2] was less than 6.70.

Consider `COc1nccc(-c2nc([C@@](O)(CNC(=O)c3cc(OC)c4nn(C5CC5)cc4c3)C3CC3)cc3c2OC[C@]3(C)C(N)=O)c1F` [Example 802], for which the pEC50 under setting [2] was greater than 6.70.

`COc1cc(C(=O)NC[C@](O)(c2cc3c(c(-c4cc(F)c(F)cc4F)n2)OC[C@]3(C)C(N)=O)C2CC2)cc2cc(Cl)cnc12` [Example 103]: the pEC50 under setting [1] was greater than 6.70. The same measure, in the same setting: in the case of `COc1cc(C(=O)NC[C@@](O)(c2cccc(F)c2)c2cc3c(c(-c4ccnc(C)c4Cl)n2)OC[C@]3(C)C(N)=O)cc2oc(C3CC3)nc12` [Example 540] it was greater than 6.70. In the case of `CC(C)c1nccc(-c2nc([C@@](O)(CNC(=O)c3cc(OC4CC4)c4nn(C(F)F)cc4c3)C3CC3)cc3c2OC[C@]3(C)C(N)=O)c1Cl` [Example 914], the pEC50 under setting [2] is less than 6.70. For `COc1cc(C(=O)NCC(O)(c2cc(F)nc(F)c2)c2cc3c(c(-c4cccc(Cl)c4Cl)n2)OC[C@]3(C)C(N)=O)cc2cn(C(F)F)nc12` (stereo partly shown) [Example 500], the pEC50 under setting [1] was greater than 6.70. Under setting [2], `COc1cc(C(=O)NC[C@@](O)(c2ccc(F)cc2)c2cc3c(c(-c4ccnc(C)c4Cl)n2)OC[C@]3(C)C(N)=O)cc2cn(C(F)F)nc12` [Example 648] showed a pEC50 of less than 6.70.

As for `COc1nccc(-c2nc([C@@](O)(CNC(=O)c3cc(OC)n4nc(C5CC5)cc4c3)C(F)(F)F)cc3c2OC[C@]3(C)C(N)=O)c1Cl` [Example 590], under setting [1], the pEC50 was greater than 6.70.

For the compound `COc1nccc(-c2nc([C@@](O)(CNC(=O)c3cc(OC)c4nc(C5CC5)oc4c3)c3ccc(F)cc3)cc3c2OC[C@]3(C)C(N)=O)c1Cl` [Example 699], the pEC50 under setting [2] is greater than 6.70.

Compound `COc1cc(C(=O)NC[C@](O)(c2cc3c(c(-c4cc(C(F)(F)F)ncc4F)n2)OC[C@]3(C)C(N)=O)C2(F)CC2)cc2cn(C3CC3)nc12` [Example 665] gave a pEC50 under setting [2] greater than 6.70. In turn, `COc1nccc(-c2nc([C@@](O)(CNC(=O)c3cc(OC)c4nc(C(F)F)oc4c3)c3ccccc3)cc3c2OC[C@]3(C)C(N)=O)c1Cl` [Example 557] had a pEC50 under setting [1] greater than 6.70. The same measure, in the same setting: in the case of `C[C@]1(C(N)=O)COc2c1cc([C@@](O)(CNC(=O)c1cc(OC3CC3)c3nn(C4CC4)cc3c1)C(F)(F)F)nc2-c1ccnc(C(F)(F)F)c1Cl` [Example 593] it was greater than 6.70; in that of `COc1nccc(-c2nc([C@@](O)(CNC(=O)c3cc(OC)c4nc(C(F)F)oc4c3)C(F)(F)F)cc3c2OC[C@]3(C)C(N)=O)c1Cl` [Example 547], less than 6.70. Same read-out and setting: in the case of `COc1cc(C(=O)NC[C@@](O)(c2ccccc2)c2cc3c(c(-c4cccc(F)c4Cl)n2)OC[C@]3(C)C(N)=O)cc2cn(C3(F)CC3)nc12` [Example 368] it was greater than 6.70.

In turn, `COc1cc(-c2nc([C@@](O)(CNC(=O)c3cc(OC)c4nn(C5CC5)cc4c3)C3CC3)cc3c2OC[C@]3(C)C(N)=O)ccn1` [Example 832] had a pEC50 under setting [2] of less than 6.70. Compound `COc1cc(C(=O)NC[C@@](O)(c2ccnc(C)c2)c2cc3c(c(-c4cc(Cl)c(F)cc4F)n2)OC[C@]3(C)C(N)=O)cc2cn(C3CC3)nc12` [Example 485] gave a pEC50 under setting [1] greater than 6.70. As to `COc1cc(C(=O)NC[C@@](O)(c2cccc(F)c2)c2cc3c(c(-c4ccnc(C(F)F)c4Cl)n2)OC[C@]3(C)C(N)=O)cc2oc(C(F)F)nc12` [Example 568], the pEC50 under setting [1] is greater than 6.70. On the same count and under the same terms, in the case of `COc1cc(C(=O)NC[C@@](O)(c2cccc(F)n2)c2cc3c(c(-c4cc(Cl)c(F)cc4F)n2)OC[C@]3(C)C(N)=O)cc2cn(C(F)F)nc12` [Example 205] it was greater than 6.70; in that of `C[C@]1(C(N)=O)COc2c1cc([C@@](O)(CNC(=O)c1cc(OC3CC3)c3ncc(Cl)cc3c1)c1cccc(F)c1)nc2-c1cccc(Cl)c1Cl` [Example 334], greater than 6.70. As to `COc1cc(C(=O)NC[C@](O)(c2cc3c(c(-c4ccnc(F)c4Cl)n2)OC[C@]3(C)C(N)=O)C2CC2)cc2cn(C3(F)CC3)nc12` [Example 209], the pEC50 under setting [1] is greater than 6.70.

The compound `COc1cc(C(=O)NC[C@](O)(c2cc3c(c(-c4cccc(C(=O)N(C)C)c4Cl)n2)OC[C@]3(C)C(N)=O)C2CC2)cc2cn(C3CC3)nc12` [Example 809] showed a pEC50 under setting [2] of less than 6.70. Under setting [1], `COc1cc(C(=O)NC[C@@](O)(c2cncnc2)c2cc3c(c(-c4cc(Cl)c(F)cc4F)n2)OC[C@]3(C)C(N)=O)cc2cn(C3CC3)nc12` [Example 479] had a negative logarithm of the EC50 (pEC50) greater than 6.70.

Under setting [1], `C[C@]1(C(N)=O)COc2c1cc([C@@](O)(CNC(=O)c1cc(OC3CC3)c3ncc(Cl)cc3c1)c1ccccc1)nc2-c1ccc(F)c(Cl)c1Cl` [Example 313] gave a pEC50 greater than 6.70.

Consider `Cc1nccc(-c2nc([C@@](O)(CNC(=O)c3cc(Cl)c4nn(C5CC5)cc4c3)C3(F)CC3)cc3c2OC[C@]3(C)C(N)=O)c1Cl` [Example 529], for which the pEC50 under setting [1] was less than 6.70. On the same count and under the same terms, in the case of `COc1cc(C(=O)NC[C@](O)(c2cc3c(c(-c4ccnc(C)c4F)n2)OC[C@]3(C)C(N)=O)C2CC2)cc2cn(C3CC3)nc12` [Example 428] it was greater than 6.70. Take `COc1nccc(-c2nc([C@@](O)(CNC(=O)c3cc(OC)c4nn(C5CC5)cc4c3)C3CC3)cc3c2OC[C@]3(C)C(N)=O)c1Cl` [Example 782]: the pEC50 under setting [2] was greater than 6.70. Take `C[C@]1(C(N)=O)COc2c1cc([C@@](O)(CNC(=O)c1cc(OC3CC3)c3ncc(Cl)cc3c1)C1CC1)nc2-c1cc(Cl)c(F)cc1F` [Example 226]: the pEC50 under setting [1] is greater than 6.70. Regarding `COc1cc(C(=O)NC[C@](O)(c2cccc(F)c2)c2cc3c(c(-c4cc(F)c(F)cc4C(N)=O)n2)OC[C@]3(C)C(N)=O)cc2cn(C3(F)CC3)nc12` [Example 406], under setting [1], the pEC50 was less than 6.70.

For `COc1cc(C(=O)NC[C@@](O)(c2ccc(F)cc2)c2cc3c(c(-c4ccnc(C)c4Cl)n2)OC[C@]3(C)C(N)=O)cc2oc(C3CC3)nc12` [Example 649], the pEC50 under setting [2] is greater than 6.70.
